Reference: article PMC7370300, “Deciphering the Binding of Salicylic Acid to Arabidopsis thaliana Chloroplastic GAPDH-A1” (International Journal of Molecular Sciences, 2020)

Experiments:
Format in all cases: binding
[1] = molecular target: GAPA1 (chloroplastic glyceraldehyde 3-phosphate dehydrogenase A1) (Arabidopsis thaliana, UniProt P25856, N94G); experiment: SPR on immobilised 3-AESA, […] protein; response diminished by […] versus WT
[2] = molecular target: T1, GAPA1 (chloroplastic glyceraldehyde 3-phosphate dehydrogenase A1) (Arabidopsis thaliana, UniProt P25856); experiment: SPR (Biacore […]), 3-AESA immobilised via its amino group on CM5 chip, […] Langmuir fit
T1 sequence (P25856 60-396): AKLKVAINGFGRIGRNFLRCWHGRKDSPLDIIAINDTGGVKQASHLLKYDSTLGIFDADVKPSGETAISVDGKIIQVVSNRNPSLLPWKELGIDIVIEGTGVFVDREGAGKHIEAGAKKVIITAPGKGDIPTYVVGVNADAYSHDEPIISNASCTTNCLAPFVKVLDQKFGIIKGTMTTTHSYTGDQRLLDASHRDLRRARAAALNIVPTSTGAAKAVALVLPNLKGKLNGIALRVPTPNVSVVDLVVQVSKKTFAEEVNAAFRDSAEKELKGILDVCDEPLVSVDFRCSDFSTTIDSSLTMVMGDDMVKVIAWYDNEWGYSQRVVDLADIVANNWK

[3] = molecular target: GAPA1 (chloroplastic glyceraldehyde 3-phosphate dehydrogenase A1) (Arabidopsis thaliana, UniProt P25856, W378L); experiment: SPR on immobilised 3-AESA
[4] = molecular target: T1, GAPA1 (chloroplastic glyceraldehyde 3-phosphate dehydrogenase A1); experiment: SPR competition with immobilised 3-AESA (competition seen from […] NADH)
[5] = molecular target: T1, GAPA1 (chloroplastic glyceraldehyde 3-phosphate dehydrogenase A1); experiment: SPR competition with immobilised 3-AESA; also inhibits GAPDH activity of purified GAPA1 ([…] at […])

Chain of GAPA1 (chloroplastic glyceraldehyde 3-phosphate dehydrogenase A1) (Arabidopsis thaliana, UniProt P25856, W378L) (P25856 60-396 W378L): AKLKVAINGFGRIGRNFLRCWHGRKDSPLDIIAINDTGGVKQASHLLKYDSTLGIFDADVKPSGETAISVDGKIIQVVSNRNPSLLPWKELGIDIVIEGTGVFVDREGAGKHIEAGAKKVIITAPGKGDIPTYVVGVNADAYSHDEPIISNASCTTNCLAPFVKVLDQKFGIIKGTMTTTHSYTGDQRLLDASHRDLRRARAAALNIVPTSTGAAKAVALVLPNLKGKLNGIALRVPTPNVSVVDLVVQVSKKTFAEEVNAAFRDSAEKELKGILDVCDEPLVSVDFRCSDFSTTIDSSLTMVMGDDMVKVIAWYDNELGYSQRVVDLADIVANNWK
Chain of GAPA1 (chloroplastic glyceraldehyde 3-phosphate dehydrogenase A1) (Arabidopsis thaliana, UniProt P25856, N94G) (P25856 60-396 N94G): as the sequence (P25856 60-396 W378L) above, with N35G, L319W counted along it

NCCc1cccc(C(=O)O)c1O [3-AESA, 3-aminoethyl salicylic acid]
SPR on immobilised 3-AESA, 50 nM protein; response diminished by 66% versus WT [1]: No complete loss of ability to bind 3-AESA was observed in these mutated proteins.
Kd [2]: 16.7 ± 5.7 nM
SPR on immobilised 3-AESA [3]: the ability of GAPA1 Trp319Leu to bind 3-AESA was not affected

NC(=O)C1=CN([C@@H]2O[C@H](COP(=O)(O)OP(=O)(O)OC[C@H]3O[C@@H](n4cnc5c(N)ncnc54)[C@H](O)[C@@H]3O)[C@@H](O)[C@H]2O)C=CC1 [NADH]
SPR competition with immobilised 3-AESA (competition seen from 2 μM NADH) [4]: pre-incubation of GAPA1 on ice with NADH reduced the level of GAPA1 association with immobilised 3-AESA

O=C(O)c1ccccc1O [SA, 2-hydroxybenzoic acid]
SPR competition with immobilised 3-AESA; also inhibits GAPDH activity of purifie [5]: GAPA1 association with immobilised 3-AESA was inhibited by the presence of SA in a running buffer in a concentration-dependent manner
